This is an account of results in patent US20240197828A1, “Chimeric molecule to treat sepsis and other inflammatory conditions” (THE FEINSTEIN INSTITUTES FOR MEDICAL RESEARCH, priority 2022, published 2024).

Residues, ends and D or L forms follow the SMILES beside them.

In the experiment the test system is WT mice. Description: CLP-induced polymicrobial sepsis, 20 hours. In kind it is in vivo, mouse. Conditions: vs vehicle. Here is the method: FIG. 6A-6M: MOP3 ameliorates inflammation, lung injury, and improves survival in sepsis. WT mice subjected to CLP-induced sepsis with MOP3 treatment (10 μg/kg) or vehicle (volume-equivalent). After 20 hours, blood and lung tissue collected for respective analyses. (A-C) Serum was analyzed for systemic eCIRP, IL-6, and TNFα levels by ELISA. (D-F) Serum was analyzed for ALT, AST, and LDH by calorimetric assays. (G-I) Lung tissue was frozen and mRNA expression of IL-6, TNFα, and IL-1β was measured by PCR and MPO by calorimetric assay. (J) Lung tissue was frozen and analyzed for MPO levels by calorimetric assay. (K) Lungs were sectioned, imaged for histologic injury by H&E staining, and performed lung injury scoring. (L) Sectioned lungs were stained for TUNEL positive cells and cell counts were quantified. All experiments were performed 3 times, and all data were used for analysis (N=6-18). Data are expressed as mean±SEM and compared by one-way ANOVA and SNK test. *p<0.05 vs. sham, #p<0.05 vs. CLP vehicle. (M) WT mice subjected to CLP-induced sepsis with MOP3 treatment (10 μg/kg) or vehicle (volume equivalent) and monitored for 10 days for humane endpoints, and differences in survival were determined (N=17 per group). *p<0.05 vs. CLP vehicle.
Adult (8-12 weeks) male, C57BL/6 wild-type (WT) mice (20-30 g) were purchased from Charles River Laboratories. MFG-E8 knockout mice (MFG-E8^−/−) were originally obtained from Dr. Shigekazu Nagata, Osaka University of Japan, and bred following our Institutional Animal Care and Use Committee (IACUC) policies. Age-matched, healthy mice were used in all experiments. Animals were randomly assigned to sham, vehicle, or treatment groups. Concerted effort was made to ensure that a limited number of animals were used in each experiment. All experiments were previously approved by IACUC of the Feinstein Institutes for Medical Research (Manhasset, NY) and were performed in accordance with the guidance for the use of experimental animals by the National Institutes of Health (Bethesda, MD). For the design of in vivo models, sample size calculation was driven by variability, effect size, significance level and power as determined through performance of early feasibility and optimization pilot studies.
Sepsis was induced in mice by cecal ligation and puncture (CLP) as previously described (4). Briefly, mice were anesthetized with inhaled isoflurane to achieve adequate anesthesia. After placement in the supine position, the abdomen was shaved and disinfected. A 2-cm midline laparotomy was created. The cecum was located and eviscerated from the abdomen and then ligated with a 4-0 silk suture approximately 1 cm proximal from the terminal cecal extremity. For short-term experiments using this polymicrobial sepsis model, the cecum was punctured twice (through and through) with a 22G needle. Careful extraction of a consistent, small amount of cecal content was extruded, and the cecum along with cecal content was returned to the peritoneal cavity. […] All comparative surgeries were performed on the same day to reduce severity-variability. All short-term experiments were repeated at least three-times to ensure reproducibility of relative markers of inflammation and injury.
For respective experiments, either WT or MFG-E8 knockout mice were subjected to CLP. For treatment experiments, mice were randomly assigned to either vehicle or treatment groups. MOP3 ([…]) was given via retroorbital (r.o.) injection at time of surgery, immediately following abdominal closure. Vehicle groups received an equivalent volume of normal saline via r.o. injection. For resuscitation, mice additionally received subcutaneous injection of 500 μL of normal saline immediately after abdominal closure.
The mouse macrophage cell culture supernatants were analyzed for cytokine levels using ELISA kits (BD Biosciences, CA). […]

As to `CC(C)C[C@H](NC(=O)[C@H](CC(N)=O)NC(=O)[C@H](Cc1c[nH]c2ccccc12)NC(=O)[C@@H](NC(=O)[C@H](CCCCN)NC(=O)[C@H](Cc1ccc(O)cc1)NC(=O)[C@H](CO)NC(=O)[C@H](CO)NC(=O)[C@H](CO)NC(=O)[C@H](CC(=O)O)NC(=O)CNC(=O)[C@@H](N)CCCNC(=N)N)[C@@H](C)O)C(=O)N[C@@H](CCCNC(=N)N)C(=O)N[C@@H](C)C(=O)N[C@@H](Cc1ccccc1)C(=O)NCC(=O)N[C@@H](Cc1c[nH]c2ccccc12)C(=O)N[C@@H](Cc1ccc(O)cc1)C(=O)O` [MOP3, RGDSSSYKTWNLRAFGWY] (H-RGDSSSYKTWNLRAFGWY-OH; N-terminus and C-terminus assumed), the “apoptotic cells in lungs (TUNEL)” value was “significantly less apoptotic cells”; the “lung MPO levels” value is “decreased”; the “lung histologic architecture (H&E, lung injury)” value is “significantly preserved histologic architecture”; the “serum ALT levels” value is reported as “reduced”. The “serum AST levels” value was “reduced” and the “serum LDH levels” value was “reduced”. Besides, where the note is “PCR”, the “lung tissue mRNA levels of IL-1β” value is given as “reduced”, the “lung tissue mRNA levels of IL-6” value is on record as “reduced” and the “lung tissue mRNA levels of TNFα” value is “reduced”. Further, the “serum levels of eCIRP” value (one-time intravenous MOP3 at surgical closure) was “significantly reduced”. Besides, for the setting “serum”, the “systemic IL-6” value was “attenuated systemic inflammation” and the “systemic TNFα” value was “attenuated systemic inflammation”.
